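Where inhibition never reached the appropriate level, the endpoint shown equals the highest concentration tested. Otherwise, values were interpolated linearly from a five-concentration, 48-hour dose response in 96-well plates. Abbreviation: GI50, concentration required for 50% inhibition of growth.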 Calls of active or inactive are those of the source. Cut-off read from the data, not from the text of the source: active = GI50 up to about 1.1 µM and inactive = higher.
Legend:
Assay in all cases: NCI-60 cell line screen, 48 h
SK-MEL-2 = tested on: SK-MEL-2
ACHN = tested on: ACHN
COLO 205 = tested on: COLO 205
OVCAR-8 = tested on: OVCAR-8
HL-60 = tested on: HL-60
OVCAR-3 = tested on: OVCAR-3
SF-539 = tested on: SF-539
SN12C = tested on: SN12C
HCC 2998 = tested on: HCC 2998
NCI-H226 = tested on: NCI-H226
HOP-62 = tested on: HOP-62
M19-MEL = tested on: M19-MEL
SNB-75 = tested on: SNB-75
NCI-H23 = tested on: NCI-H23
MDA-MB-231 = tested on: MDA-MB-231
PC-3 = tested on: PC-3
U-251 = tested on: U-251
NCI/ADR-RES = tested on: NCI/ADR-RES
T47D = tested on: T47D
RXF 393 = tested on: RXF 393

| SMILES | GI50 (SK-MEL-2) | GI50 (ACHN) | GI50 (COLO 205) | GI50 (OVCAR-8) | GI50 (HL-60) | GI50 (OVCAR-3) | GI50 (SF-539) | GI50 (SN12C) | GI50 (HCC 2998) | GI50 (NCI-H226) | GI50 (HOP-62) | GI50 (M19-MEL) | GI50 (SNB-75) | GI50 (NCI-H23) | GI50 (MDA-MB-231) | GI50 (PC-3) | GI50 (U-251) | GI50 (NCI/ADR-RES) | GI50 (T47D) | GI50 (RXF 393) |
| --- | --- | --- | --- | --- | --- | --- | --- | --- | --- | --- | --- | --- | --- | --- | --- | --- | --- | --- | --- | --- |
| CC(=O)Nc1ccc(C(=O)N2N=C(C)/C(=C\c3c(O)ccc4ccccc34)C2=O)cc1 | 29.8 µM (inactive) | 30.6 µM (inactive) | > 100 µM (inactive) | 88.1 µM (inactive) | 57.4 µM (inactive) | 91.8 µM (inactive) | 56.4 µM (inactive) | 48.8 µM (inactive) | > 100 µM (inactive) | 39.5 µM (inactive) | > 100 µM (inactive) | 45.6 µM (inactive) | > 100 µM (inactive) | > 100 µM (inactive) |  |  |  |  |  |  |
| COc1ccccc1NC(=S)Nc1cc(C)cc(C)n1 | > 100 µM (inactive) | > 100 µM (inactive) | > 100 µM (inactive) | > 100 µM (inactive) | > 100 µM (inactive) | > 70.8 µM (inactive) | > 100 µM (inactive) | > 100 µM (inactive) | > 100 µM (inactive) | > 100 µM (inactive) | > 63 µM (inactive) |  | > 49.4 µM (inactive) | > 100 µM (inactive) | > 100 µM (inactive) | > 89.9 µM (inactive) | > 100 µM (inactive) | > 100 µM (inactive) | > 100 µM (inactive) | > 100 µM (inactive) |
| CCOC(=O)C(C)c1nc2cc(C(F)(F)F)ccc2[nH]c1=O (centres undefined) | > 100 µM (inactive) | > 100 µM (inactive) | > 100 µM (inactive) | > 100 µM (inactive) | 62.7 µM (inactive) | 82 µM (inactive) | > 100 µM (inactive) | > 100 µM (inactive) | > 100 µM (inactive) | > 100 µM (inactive) | > 100 µM (inactive) |  | > 100 µM (inactive) | 81.7 µM (inactive) | > 100 µM (inactive) | 49 µM (inactive) | > 100 µM (inactive) | 47.8 µM (inactive) | 15.4 µM (inactive) | > 100 µM (inactive) |
| O=S1(=O)OCCOS(=O)(=O)C1Cc1ccccc1 |  | 51.5 µM (inactive) | 19.1 µM (inactive) | 70.1 µM (inactive) | 21.4 µM (inactive) | 20.8 µM (inactive) | 26.5 µM (inactive) | 46.1 µM (inactive) | 20 µM (inactive) | 46.1 µM (inactive) | 52.8 µM (inactive) | 39.5 µM (inactive) | 47.3 µM (inactive) | 64.1 µM (inactive) |  |  | 24.4 µM (inactive) |  |  | 41.1 µM (inactive) |
| COc1ccc(C(=O)Nc2ccc3oc(-c4ccccc4)nc3c2)cc1 | > 100 µM (inactive) | > 100 µM (inactive) | > 100 µM (inactive) | 22.3 µM (inactive) | > 100 µM (inactive) | > 100 µM (inactive) | 32.5 µM (inactive) | > 100 µM (inactive) | > 100 µM (inactive) | > 100 µM (inactive) | 76.6 µM (inactive) |  | 29 µM (inactive) | > 100 µM (inactive) | > 100 µM (inactive) | > 100 µM (inactive) | 61.7 µM (inactive) | 70.1 µM (inactive) | > 100 µM (inactive) | > 100 µM (inactive) |
| CCOP(=O)(OCC)C1C(=O)O[C@H]2CCCC[C@@H]12 (some centres undefined) | > 100 µM (inactive) | > 100 µM (inactive) | > 100 µM (inactive) | > 100 µM (inactive) |  | > 100 µM (inactive) | > 100 µM (inactive) | > 100 µM (inactive) | > 100 µM (inactive) |  | > 100 µM (inactive) | > 100 µM (inactive) | > 100 µM (inactive) | > 100 µM (inactive) |  |  | > 100 µM (inactive) |  |  | > 100 µM (inactive) |
| CN1CCCc2nc3ccccc3n2C1 | > 100 µM (inactive) | > 100 µM (inactive) | > 100 µM (inactive) | > 100 µM (inactive) | > 100 µM (inactive) | > 100 µM (inactive) | > 100 µM (inactive) | > 100 µM (inactive) |  | > 100 µM (inactive) | > 100 µM (inactive) | > 100 µM (inactive) | > 100 µM (inactive) | > 100 µM (inactive) |  |  | > 100 µM (inactive) |  |  | > 100 µM (inactive) |
| C/C(=C\c1csc(C)n1)[C@@H]1C[C@@H]2O[C@@H]2CCC[C@H](C)[C@H](O)[C@@H](C)C(=O)C(C)(C)[C@@H](O)CC(=O)O1.C/C(=C\c1csc(C)n1)[C@@H]1C[C@@H]2O[C@]2(C)CCC[C@H](C)[C@H](O)[C@@H](C)C(=O)C(C)(C)[C@@H](O)CC(=O)O1 | 0.0246 µM (active) | 0.0179 µM (active) | 0.00299 µM (active) | 0.0048 µM (active) | 0.00475 µM (active) | 0.00333 µM (active) | 0.00511 µM (active) | 0.00562 µM (active) | 0.00403 µM (active) | 0.0455 µM (active) | 0.0258 µM (active) |  | 0.00384 µM (active) | 0.00664 µM (active) | 0.00893 µM (active) | 0.00469 µM (active) | 0.0055 µM (active) | 0.0191 µM (active) | 0.0366 µM (active) | 0.00266 µM (active) |

Source: ChEMBL document CHEMBL1201862, “PubChem BioAssay data set” (2004)
